Patent US7618990B2, “Oxazolidone derivatives as PR modulators” (Wyeth, priority 2006, dated 2009)

What follows are compounds tested on alkaline phosphatase activity in T47D cells (assay: Effects of progestins and antiprogestins on alkaline phosphatase activity in T47D cells (antagonist mode)). Settings: Homo sapiens, % inhibition at 30 nM, in the presence of 1 nM progesterone, read-out: T47D Alkaline Phosphatase Activity IC50 (nM) or % inhibition.
Format: cell-based
Method: (1) Effects of Progestins and Antiprogestins on Alkaline Phosphatase Activity in T47D Cells
PURPOSE: To identify progestins or antiprogestins by determining a compound's effect on alkaline phosphatase activity in T47D cells.
Culture Medium: • DMEM:F12 (1:1) (GIBCO, BRL) supplemented with 5% (v/v) charcoal stripped fetal bovine serum (not heat-inactivated), 100 U/mL penicillin, 100 μg/mL streptomycin, and 2 mM the GlutaMax™ reagent (GIBCO, BRL).
Alkaline Phosphatase Assay Buffer: • I. 0.1M Tris-HCl, pH 9.8, containing 0.2% the Triton® X-100 reagent • II. 0.1M Tris-HCl, pH 9.8, containing 4 mM p-nitrophenyl phosphate (Sigma). B. Cell Culture and Treatment:
Frozen T47D cells were thawed in a 37° C. water bath and diluted to 280,000 cells/mL in culture medium. To each well in a 96-well plate (Falcon, Becton Dickinson Labware), 180 μL of diluted cell suspension was added.
Twenty μL of reference or test compounds diluted in the culture medium was then added to each well. When testing for progestin antagonist activity, reference antiprogestins or test compounds were added in the presence of 1 nM progesterone. The cells were incubated at 37° C. in a 5% CO2/humidified atmosphere for 24 h.
NOTE: For high throughput screening, one concentration of each compound was tested at 0.3 μg/mL. Based on an average molecular weight of 300 g/mol for the compounds in the library, the concentration was approximately 1 μM. Subsequently, active compounds were tested in dose response assays to determine EC50 and IC50. C. Alkaline Phosphatase Enzyme Assay:
At the end of treatment, the medium was removed from the plate. Fifty μL of assay buffer I was added to each well. The plates were shaken in a titer plate shaker for 15 min. Then 150 μL of assay buffer II was added to each well. Optical density measurements were taken at 5 min intervals for 30 min at a test wavelength of 405 nm.
For reference and test compounds, a dose response curve was generated for dose (X-axis) vs. the rate of enzyme reaction (slope) (Y-axis). Square root-transformed data was used for analysis of variance and nonlinear dose response curve fitting for both agonist and antagonist modes. Huber weighting was used to down-weight the effects of outliers. EC50 or IC50 values were calculated from the retransformed values. JMP software (SAS Institute, Inc.) was used for both one-way analysis of variance and non-linear dose response analysis in both single dose and dose response studies.
Progesterone and trimegestone were reference progestins and RU486 was the reference antiprogestin. All reference compounds were run in full dose response curves and the EC50 and IC50 values were calculated.

| SMILES | inhibition at 0.03 µM [%] |
| --- | --- |
| CC1(C)COC(=O)N1c1nc(-c2ccc(Cl)cc2)cs1 [Example 114, 3-[4-(4-Chlorophenyl)-1,3-thiazol-2-yl]-4,4-dimethyl-1,3-oxazolidin-2-one] | 53 |

Same assay, conditions: Homo sapiens, % inhibition at 3000 nM, in the presence of 1 nM progesterone, read-out: T47D Alkaline Phosphatase Activity IC50 (nM) or % inhibition

| SMILES | inhibition at 3 µM [%] |
| --- | --- |
| CCS(=O)(=O)c1cccc(-c2csc(N3C(=O)OCC3(C)C)n2)c1 [Example 102, 3-{4-[3-(Ethylsulfonyl)phenyl]-1,3-thiazol-2-yl}-4,4-dimethyl-1,3-oxazolidin-2-one] | 27 |
| CC1(C)COC(=O)N1c1nc(-c2ccc(Oc3ccccc3)cc2)cs1 [Example 127, 4,4-Dimethyl-3-[4-(4-phenoxyphenyl)-1,3-thiazol-2-yl]-1,3-oxazolidin-2-one] | 87 |
| CC1(C)CO/C(=N\S(C)(=O)=O)N1c1nc(-c2ccc(C#N)cc2)cs1 [Example 136, N-{(2Z)-3-[4-(4-Cyanophenyl)-1,3-thiazol-2-yl]-4,4-dimethyl-1,3-oxazolidin-2-ylidene}methanesulfonamide] | 100 |
| CC1(C)COC(=O)N1c1nc(-c2ccoc2)cs1 [Example 104, 3-[4-(3-Furyl)-1,3-thiazol-2-yl]-4,4-dimethyl-1,3-oxazolidin-2-one] | 94 |
| CC1(C)COC(=O)N1c1nc(-c2ccc(OCc3ccccc3)cc2)cs1 [Example 125, 3-{4-[4-(Benzyloxy)phenyl]-1,3-thiazol-2-yl}-4,4-dimethyl-1,3-oxazolidin-2-one] | 80 |
| O=C1OC[C@H](COCc2ccccc2)N1c1nc(-c2ccc(Br)cc2)cs1 [Example 91, (4S)-4-[(benzyloxy)methyl]-3-[4-(4-bromophenyl)-1,3-thiazol-2-yl]-1,3-oxazolidin-2-one] | 63 |

Same assay, conditions: Homo sapiens, in the presence of 1 nM progesterone, 24 h, read-out: T47D Alkaline Phosphatase Activity IC50 (nM) or % inhibition

| SMILES | IC50 [nM] |
| --- | --- |
| CC1(C)COC(=O)N1c1nc(-c2ccccc2[N+](=O)[O-])cs1 [Example 123, 4,4-Dimethyl-3-[4-(2-nitrophenyl)-1,3-thiazol-2-yl]-1,3-oxazolidin-2-one] | 1420 |
| CC1(C)COC(=O)N1c1nc(-c2ccc(C(N)=NO)cc2)cs1 [Example 85, 4-[2-(4,4-Dimethyl-2-oxo-1,3-oxazolidin-3-yl)-1,3-thiazol-4-yl]-N′-hydroxybenzene carboximidamide] | 729 |
| Cc1ccc(-c2csc(N3C(=O)OCC3(C)C)n2)cc1 [Example 121, 4,4-Dimethyl-3-[4-(4-methylphenyl)-1,3-thiazol-2-yl]-1,3-oxazolidin-2-one] | 110 |
| CC1(C)COC(=O)N1c1nc(-c2ccc(Br)cc2)ns1 [Example 93, 3-[3-(4-Bromophenyl)-1,2,4-thiadiazol-5-yl]-4,4-dimethyl-1,3-oxazolidin-2-one] | 135 |
| COc1ccc(-c2csc(N3C(=O)OCC3(C)C)n2)cc1OC [Example 108, 3-[4-(3,4-Dimethoxyphenyl)-1,3-thiazol-2-yl]-4,4-dimethyl-1,3-oxazolidin-2-one] | 823 |
| CC1(C)COC(=O)N1c1nc(-c2ccc(C(F)(F)F)cc2)cs1 [Example 95, 4,4-Dimethyl-3-{4-[4-(trifluoromethyl)phenyl]-1,3-thiazol-2-yl}-1,3-oxazolidin-2-one] | 108 |
| COc1ccccc1-c1csc(N2C(=O)OCC2(C)C)n1 [Example 100, 3-[4-(2-Methoxyphenyl)-1,3-thiazol-2-yl]-4,4-dimethyl-1,3-oxazolidin-2-one] | 854 |
| CC1(C)COC(=O)N1c1nc(-c2ccc3ccccc3c2)cs1 [Example 122, 4,4-Dimethyl-3-[4-(2-naphthyl)-1,3-thiazol-2-yl]-1,3-oxazolidin-2-one] | 557 |
| CN1CCN(c2nc(-c3ccc(Br)cc3)cs2)C1=O [Example 76, 1-[4-(4-Bromophenyl)-1,3-thiazol-2-yl]-3-methylimidazolidin-2-one] | 733 |
| CC1(C)COC(=O)N1c1nc(-c2ccc3[nH]ccc3c2)cs1 [Example 105, 3-[4-(1H-Indol-5-yl)-1,3-thiazol-2-yl]-4,4-dimethyl-1,3-oxazolidin-2-one] | 110 |
| COc1ccc(-c2csc(N3C(=O)OCC3(C)C)n2)cc1 [Example 98, 3-[4-(4-Methoxyphenyl)-1,3-thiazol-2-yl]-4,4-dimethyl-1,3-oxazolidin-2-one] | 191 |
| CC1(C)COC(=O)N1c1nc(-c2ccc(OC(F)(F)F)cc2)cs1 [Example 97, 4,4-Dimethyl-3-{4-[4-(trifluoromethoxy)phenyl]-1,3-thiazol-2-yl}-1,3-oxazolidin-2-one] | 285 |
| Cn1cc(C#N)cc1-c1csc(N2C(=O)OCC2(C)C)n1 [Example 134, 5-[2-(4,4-Dimethyl-2-oxo-1,3-oxazolidin-3-yl)-1,3-thiazol-4-yl]-1-methyl-1H-pyrrole-3-carbonitrile] | 284 |
| N#Cc1ccc(-c2csc(N3CCOC3=O)c2)cc1 [Example 112, 4-[5-(2-Oxo-1,3-oxazolidin-3-yl)-3-thienyl]benzonitrile] | 480 |
| CC1(C)COC(=O)N1c1nc(-c2c(F)cc(F)cc2F)cs1 [Example 101, 4,4-Dimethyl-3-[4-(2,4,6-trifluorophenyl)-1,3-thiazol-2-yl]-1,3-oxazolidin-2-one] | 536 |
| CC1(C)OCCN1c1nc(-c2ccc(C#N)cc2)cs1 [Example 110, 4-[2-(2,2-Dimethyl-1,3-oxazolidin-3-yl)-1,3-thiazol-4-yl]benzonitrile] | 269 |

Continued, values first:

| IC50 [nM] | SMILES |
| --- | --- |
| 69.6 | Cn1cc(-c2csc(N3C(=O)OCC3(C)C)n2)cc1C#N [Example 133, 4-[2-(4,4-Dimethyl-2-oxo-1,3-oxazolidin-3-yl)-1,3-thiazol-4-yl]-1-methyl-1H-pyrrole-2-carbonitrile] |
| 64.4 | CC1(C)CO/C(=N\C#N)N1c1nc(-c2ccc(C#N)cc2)cs1 [Example 135, {(2Z)-3-[4-(4-cyanophenyl)-1,3-thiazol-2-yl]-4,4-dimethyl-1,3-oxazolidin-2-ylidene}cyanamide] |
| 59.7 | CC1(C)COC(=O)N1c1nc(-c2cccc([N+](=O)[O-])c2)cs1 [Example 124, 4,4-Dimethyl-3-[4-(3-nitrophenyl)-1,3-thiazol-2-yl]-1,3-oxazolidin-2-one] |
| 41.1 | O=C1OCCN1c1nc(-c2ccc(Cl)cc2)cs1 [Example 131, 3-[4-(4-Chlorophenyl)-1,3-thiazol-2-yl]-1,3-oxazolidin-2-one] |
| 37.6 | N#Cc1ccc(-c2csc(N3CCOC3=O)n2)cc1 [Example 132, 4-[2-(2-Oxo-1,3-oxazolidin-3-yl)-1,3-thiazol-4-yl]benzonitrile] |
| 35.4 | CN1CC(C)(C)N(c2nc(-c3ccc(C#N)cc3)cs2)C1=O [Example 83, 4-[2-(3,5,5-Trimethyl-2-oxoimidazolidin-1-yl)-1,3-thiazol-4-yl]benzonitrile] |
| 33.4 | Cc1cc(-c2csc(N3C(=O)OCC3(C)C)n2)ccc1F [Example 126, 3-[4-(4-Fluoro-3-methylphenyl)-1,3-thiazol-2-yl]-4,4-dimethyl-1,3-oxazolidin-2-one] |
| 28.8 | CC1(C)COC(=O)N1c1nc(-c2ccc(Cl)c(F)c2)cs1 [Example 109, 3-[4-(4-Chloro-3-fluorophenyl)-1,3-thiazol-2-yl]-4,4-dimethyl-1,3-oxazolidin-2-one] |
| 20.3 | COC(=O)c1ccc(-c2csc(N3C(=O)OCC3(C)C)n2)cc1 [Example 129, Methyl 4-[2-(4,4-dimethyl-2-oxo-1,3-oxazolidin-3-yl)-1,3-thiazol-4-yl]benzoate] |
| 17.1 | N#Cc1ccc(-c2csc(N3C(=O)OCC34CCC4)n2)cc1 [Example 27, 4-[2-(6-Oxo-7-oxa-5-azaspiro[3.4]oct-5-yl)-1,3-thiazol-4-yl]benzonitrile] |
| 10.8 | CC(=O)/N=C1\OCC(C)(C)N1c1nc(-c2ccc(C#N)cc2)cs1 [Example 137, N-{(2Z)-3-[4-(4-Cyanophenyl)-1,3-thiazol-2-yl]-4,4-dimethyl-1,3-oxazolidin-2-ylidene}acetamide] |
| 6.4 | CC1(C)COC(=S)N1c1nc(-c2ccc(C#N)cc2)cs1 [Example 82, 4-[2-(4,4-Dimethyl-2-thioxo-1,3-oxazolidin-3-yl)-1,3-thiazol-4-yl]benzonitrile] |
| 5 | CCC1(CC)COC(=O)N1c1nc2c(s1)CCc1cc(C#N)ccc1-2 [Example 86, 2-(4,4-Diethyl-2-oxo-1,3-oxazolidin-3-yl)-4,5-dihydronaphtho[1,2-d][1,3]thiazole-7-carbonitrile] |
